Data on 2 molecules can be found in patent publication US20030114530A1, “Remedies for degenerative arthritis” (priority 2000, published 2003).

SMILES strings stand for the structures. Entries after “also recorded” stand apart in the source; their conditions may differ.

The subject of one test is model of OA in rabbits. To be noted: Inflamm Res 44, Suppl 2, S117-118 (1995); cited from earlier work.
Test [1] relates to partial meniscectomy model of osteoarthritis rabbits. The experiment in a line: partial meniscectomy model of osteoarthritis in rabbits. The class given is in vivo, rabbit. The protocol:
The effect of the compound on osteoarthritis invented in this study was confirmed by the experiments of a partial meniscectomy model in rabbits.
Female rabbits (Kbs: NZW(Healthy)) were bred for one week before the experiments. The animals were subjected to OA model according to following method.
Each animal was anesthetized with a subcutaneous injection of xylazine (0.05 ml/kg) and an intravenous injection of sodium pentobarbital (20 mg/kg). Right hind knee was shaved, and the width of the knee was measured with the micrometer caliper. It was disinfected with iodine solution. If required local anesthesia was performed with lidocaine hydrochloride.
The skin and articular capsule around right knee were incised at right angle to patellar ligament, the fibular collateral and sesamoid ligament were transected with blades. Adrenaline solution was dropped for the arrest of hemorrhage. The lateral meniscus was partially removed. After washing the operated area with saline solution, the synovium and articular capsule were stitched together. Then muscular coat and skin were put in a suture. […]
After anesthesia with sodium pentobarbital (40 mg/kg), the hind knee was shaved and the width of them was measured with a micrometer caliper. […] After masking, the area of erosion was measured. […]

Regarding `COc1ccc(S(=O)(=O)N(Cc2cccnc2)[C@@H](C(=O)NO)C(C)C)cc1.Cl` [CGS-27023A, 2(R)-[N-(4-methoxyphenylsulfonyl)-N-(3-pyridylmethyl)amino]-3-methylbutanohydroxamic acid hydrochloride], the “effect on a model of OA” value in the test with model of OA in rabbits was “effected on a model of OA in rabbits”.
For the molecule `CCOCOC[C@H](C[C@H](C)C(=O)NO)NC(=O)c1ccc(Oc2ccccc2)cc1` [compound of formula (I), N-hydroxy-5-ethoxymethyloxy-2(S)-methyl-4(S)-(4-phenoxybenzoyl)aminopentanamide], in test [1] (10, 30, 100 or 300 mg/kg twice a day, oral, 7 days after meniscectomy, FIG. 1), the “erosion area of femur” value is “decreasing effect”. Also, the “efficacy in the partial meniscectomy OA model” value in test [1] (rabbits, oral twice a day) is given as “shows an efficiency; also recorded: high-effectivity”.
